Like-named read-outs stand apart in the source and are kept apart here.
Key:
A2780 cells = test: In-vitro cell proliferation assay (SRB), A2780 cells; assay type: cell-based; conditions: Homo sapiens, A2780, 72 h, A2780 cells, 72 hours, read-out: A2780 IC50
Method in brief: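 Read-out is SRB absorbance at 570 nm on TCA-fixed cells after 72 hours of compound treatment at 37° C. in 5% CO2. Background from a media-only plate is subtracted, and % inhibition is interpolated between two tested concentrations.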

NAMPT = target: T1, NAMPT (Homo sapiens, UniProt P43490); test: Biochemical inhibition assay: NAMPT enzymatic reaction, NMN quantified by mass spectrometry; conditions: read-out: Biochem IC50
T1 construct: His tag; host or cells: E. coli
T1 sequence (P43490 whole entry): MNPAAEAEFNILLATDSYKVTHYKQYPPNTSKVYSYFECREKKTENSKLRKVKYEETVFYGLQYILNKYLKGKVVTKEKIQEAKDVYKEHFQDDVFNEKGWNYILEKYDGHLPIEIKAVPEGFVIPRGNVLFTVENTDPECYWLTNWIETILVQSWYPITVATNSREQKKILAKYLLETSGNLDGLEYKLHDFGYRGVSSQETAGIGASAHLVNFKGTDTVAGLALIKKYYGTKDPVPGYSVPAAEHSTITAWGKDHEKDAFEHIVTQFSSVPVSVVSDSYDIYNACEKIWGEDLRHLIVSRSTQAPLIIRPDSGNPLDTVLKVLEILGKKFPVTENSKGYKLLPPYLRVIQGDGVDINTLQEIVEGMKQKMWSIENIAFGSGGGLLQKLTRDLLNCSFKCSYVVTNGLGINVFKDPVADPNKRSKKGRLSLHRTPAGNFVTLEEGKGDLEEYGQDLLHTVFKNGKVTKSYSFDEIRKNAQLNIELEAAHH
Method in brief: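 Inhibition of E. coli-expressed His-tagged human NAMPT, measured as NMN formation by mass spectrometry after a 30 min room-temperature reaction containing 1 μM NAM, 100 μM PRPP and 2.5 mM ATP.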

## COc1ccc(Cl)cc1S(=O)(=O)c1ccc(CNC(=O)c2cc3ccncc3s2)cc1 [N-({4-[(5-chloro-2-methoxybenzene)sulfonyl]phenyl}methyl)thieno[2,3-c]pyridine-2-carboxamide]
A2780 cells; SRB assay
  IC50: 1.3 nM
NAMPT; NAMPT enzymatic reaction
  IC50: 4 nM

## COc1ccc(Cl)cc1NS(=O)(=O)c1ccc(CNC(=O)c2cc3cnccc3[nH]2)cc1 [N-({4-[(5-chloro-2-methoxyphenyl)sulfamoyl]phenyl}methyl)-1H-pyrrolo[3,2-c]pyridine-2-carboxamide]
A2780 cells; SRB assay
  IC50: 18000 nM
NAMPT; NAMPT enzymatic reaction
  IC50: 197 nM

## Cc1ccc(Cl)cc1S(=O)(=O)c1ccc(CNC(=O)c2cnc3[nH]ncc3c2)cc1 [N-({4-[(5-chloro-2-methylbenzene)sulfonyl]phenyl}methyl)-1H-pyrazolo[3,4-b]pyridine-5-carboxamide]
A2780 cells; SRB
  IC50: 13.9 nM
NAMPT; NAMPT enzymatic reaction
  IC50: 22.7 nM

## Cc1ccc(Cl)cc1S(=O)(=O)c1ccc(CNC(=O)c2ccc3nccn3c2)cc1 [N-({4-[(5-chloro-2-methylbenzene)sulfonyl]phenyl}methyl)imidazo[1,2-a]pyridine-6-carboxamide]
A2780 cells; SRB
  IC50: 3.7 nM
NAMPT; NAMPT enzymatic reaction
  IC50: 1.9 nM

## CCCOc1ccc(Cl)cc1S(=O)(=O)c1ccc(CNC(=O)c2cnc3[nH]ncc3c2)cc1 [N-({4-[(5-chloro-2-propoxybenzene)sulfonyl]phenyl}methyl)-1H-pyrazolo[3,4-b]pyridine-5-carboxamide]
A2780 cells; SRB
  IC50: 25.1 nM
NAMPT; NAMPT enzymatic reaction
  IC50: 49.2 nM

## COc1ccc(F)cc1S(=O)(=O)c1ccc(CNC(=O)c2cc3cnccc3[nH]2)cc1 [N-({4-[(5-fluoro-2-methoxybenzene)sulfonyl]phenyl}methyl)-1H-pyrrolo[3,2-c]pyridine-2-carboxamide]
A2780 cells; SRB assay
  IC50: 3 nM
NAMPT; NAMPT enzymatic reaction
  IC50: 5 nM

## COc1ccc(F)cc1S(=O)(=O)c1ccc(CNC(=O)c2ccc3nccn3c2)cc1 [N-({4-[(5-fluoro-2-methoxybenzene)sulfonyl]phenyl}methyl)imidazo[1,2-a]pyridine-6-carboxamide]
A2780 cells; SRB
  IC50: 6.65 nM
NAMPT; NAMPT enzymatic reaction
  IC50: 22 nM

## COc1ccc(F)cc1NS(=O)(=O)c1ccc(CNC(=O)c2cc3cnccc3[nH]2)cc1 [N-({4-[(5-fluoro-2-methoxyphenyl)sulfamoyl]phenyl}methyl)-1H-pyrrolo[3,2-c]pyridine-2-carboxamide]
A2780 cells; SRB assay
  IC50: > 30000 nM
NAMPT; NAMPT enzymatic reaction
  IC50: 232 nM

## COc1ccc(F)cc1NS(=O)(=O)c1ccc(CNC(=O)c2ccc3ncccc3c2)cc1 [N-({4-[(5-fluoro-2-methoxyphenyl)sulfamoyl]phenyl}methyl)quinoline-6-carboxamide]
A2780 cells; SRB
  IC50: 1000 to 10000 nM
NAMPT; NAMPT enzymatic assay
  IC50: 66 nM

## Cc1ccc(F)cc1S(=O)(=O)c1ccc(CNC(=O)c2cnc3[nH]ncc3c2)cc1 [N-({4-[(5-fluoro-2-methylbenzene)sulfonyl]phenyl}methyl)-1H-pyrazolo[3,4-b]pyridine-5-carboxamide]
A2780 cells; SRB
  IC50: 59.7 nM
NAMPT; NAMPT enzymatic reaction
  IC50: 20.4 nM

## Cc1ccc(F)cc1S(=O)(=O)c1ccc(CNC(=O)c2cc3cnccc3[nH]2)cc1 [N-({4-[(5-fluoro-2-methylbenzene)sulfonyl]phenyl}methyl)-1H-pyrrolo[3,2-c]pyridine-2-carboxamide]
A2780 cells; SRB assay
  IC50: 7 nM
NAMPT; NAMPT enzymatic reaction
  IC50: 11 nM

## Cc1ccc(F)cc1S(=O)(=O)c1ccc(CNC(=O)c2ccc3nccn3c2)cc1 [N-({4-[(5-fluoro-2-methylbenzene)sulfonyl]phenyl}methyl)imidazo[1,2-a]pyridine-6-carboxamide]
A2780 cells; SRB
  IC50: 22.9 nM
NAMPT; NAMPT enzymatic reaction
  IC50: 12.6 nM

## Cc1ccc(F)cc1S(=O)(=O)c1ccc(CNC(=O)c2cc3ccncc3s2)cc1 [N-({4-[(5-fluoro-2-methylbenzene)sulfonyl]phenyl}methyl)thieno[2,3-c]pyridine-2-carboxamide]
A2780 cells; SRB assay
  IC50: 9.4 nM
NAMPT; NAMPT enzymatic reaction
  IC50: 3 nM

## COc1ccc(C)c(NS(=O)(=O)c2ccc(CNC(=O)c3cc4cnccc4[nH]3)cc2)c1 [N-({4-[(5-methoxy-2-methylphenyl)sulfamoyl]phenyl}methyl)-1H-pyrrolo[3,2-c]pyridine-2-carboxamide]
A2780 cells; SRB assay
  IC50: 13000 nM
NAMPT; NAMPT enzymatic reaction
  IC50: 51 nM

## COc1ccc(C(C)(C)C)cc1S(=O)(=O)c1ccc(CNC(=O)c2cc3cnccc3[nH]2)cc1 [N-({4-[(5-tert-butyl-2-methoxybenzene)sulfonyl]phenyl}methyl)-1H-pyrrolo[3,2-c]pyridine-2-carboxamide]
A2780 cells; SRB assay
  IC50: 6 nM
NAMPT; NAMPT enzymatic reaction
  IC50: 647 nM

## COc1ccc(C(C)(C)C)cc1S(=O)(=O)c1ccc(CNC(=O)c2ccc3nccn3c2)cc1 [N-({4-[(5-tert-butyl-2-methoxybenzene)sulfonyl]phenyl}methyl)imidazo[1,2-a]pyridine-6-carboxamide]
A2780 cells; SRB
  IC50: 6.77 nM
NAMPT; NAMPT enzymatic assay
  IC50: 29 nM

## COc1ccc(C(C)(C)C)cc1S(=O)(=O)c1ccc(CNC(=O)c2cc3ccncc3s2)cc1 [N-({4-[(5-tert-butyl-2-methoxybenzene)sulfonyl]phenyl}methyl)thieno[2,3-c]pyridine-2-carboxamide]
A2780 cells; SRB assay
  IC50: 4.6 nM
NAMPT; NAMPT enzymatic reaction
  IC50: 15 nM

## Cc1ccc(Cl)c(S(=O)(=O)c2ccc(CNC(=O)c3cnc4[nH]ncc4c3)cc2)c1F [N-({4-[(6-chloro-2-fluoro-3-methylbenzene)sulfonyl]phenyl}methyl)-1H-pyrazolo[3,4-b]pyridine-5-carboxamide]
A2780 cells; SRB
  IC50: 100 to 1000 nM
NAMPT; NAMPT enzymatic assay
  IC50: 112 nM

## Cc1ccc(Cl)c(S(=O)(=O)c2ccc(CNC(=O)c3cc4ccncc4o3)cc2)c1F [N-({4-[(6-chloro-2-fluoro-3-methylbenzene)sulfonyl]phenyl}methyl)furo[2,3-c]pyridine-2-carboxamide]
A2780 cells; SRB
  IC50: 29.3 nM
NAMPT; NAMPT enzymatic assay
  IC50: 21.9 nM

## O=C(NCc1ccc(S(=O)(=O)Nc2cccc3cccnc23)cc1)c1cc2cnccc2[nH]1 [N-({4-[(quinolin-8-yl)sulfamoyl]phenyl}methyl)-1H-pyrrolo[3,2-c]pyridine-2-carboxamide]
A2780 cells; SRB assay
  IC50: 1480 nM
NAMPT; NAMPT enzymatic reaction
  IC50: 75 nM

## O=C(NCc1ccc(S(=O)(=O)c2cccc(Cl)c2)cc1)c1cc2ccncc2o1 [N-({4-[{3-chlorobenzene)sulfonyl]phenyl}methyl)furo[2,3-c]pyridine-2-carboxamide]
A2780 cells; SRB
  IC50: 3.3 nM
NAMPT; NAMPT enzymatic reaction
  IC50: 6 nM

## COc1ccc(S(=O)(=O)c2ccc(CNC(=O)c3cc4ccncc4s3)cc2)cc1C [N-({4-[{4-methoxy-3-methylbenzene)sulfonyl]phenyl}methyl)thieno[2,3-c]pyridine-2-carboxamide]
A2780 cells; SRB assay
  IC50: 2.4 nM
NAMPT; NAMPT enzymatic reaction
  IC50: 3 nM

## O=C(Nc1ccc(S(=O)(=O)c2ccccc2)cc1)c1cccnc1 [N-[4-(benzenesulfonyl)phenyl]pyridine-3-carboxamide]
A2780 cells; SRB assay
  IC50: > 30000 nM
NAMPT; NAMPT enzymatic reaction
  IC50: 12000 nM

## O=C(Nc1ccc(S(=O)(=O)N2CCCCC2)cc1)c1cc2cnccc2[nH]1 [N-[4-(piperidine-1-sulfonyl)phenyl]-1H-pyrrolo[3,2-c]pyridine-2-carboxamide]
A2780 cells; SRB assay
  IC50: 6 nM
NAMPT; NAMPT enzymatic reaction
  IC50: 8 nM

## O=C(COc1cccnc1)Nc1ccc(S(=O)(=O)N2CCCCC2)cc1 [N-[4-(piperidine-1-sulfonyl)phenyl]-2-(pyridin-3-yloxy)acetamide]
A2780 cells; SRB assay
  IC50: 6.6 nM
NAMPT; NAMPT enzymatic reaction
  IC50: 1.1 nM

## O=C(Nc1ccc(CNC(=O)c2cc3cnccc3[nH]2)cc1)c1ccccc1 [N-[(4-benzamidophenyl)methyl]-1H-pyrrolo[3,2-c]pyridine-2-carboxamide]
A2780 cells; SRB assay
  IC50: 4 nM
NAMPT; NAMPT enzymatic reaction
  IC50: 19 nM

## O=C(NCc1ccc(NS(=O)(=O)c2ccccc2)cc1)c1cc2cnccc2[nH]1 [N-[(4-benzenesulfonamidophenyl)methyl]-1H-pyrrolo[3,2-c]pyridine-2-carboxamide]
A2780 cells; SRB assay
  IC50: 5 nM
NAMPT; NAMPT enzymatic reaction
  IC50: 11 nM

## CCN(C)c1ncc(S(=O)(=O)c2ccc(CNC(=O)c3cnc4[nH]ncc4c3)cc2)s1 [N-[(4-{2-[ethyl(methyl)amino]-1,3-thiazole-5-sulfonyl}phenyl)methyl]-1H-pyrazolo[3,4-b]pyridine-5-carboxamide]
A2780 cells; SRB
  IC50: 1.5 nM
NAMPT; NAMPT enzymatic assay
  IC50: 3.6 nM

## CCN(C)c1ncc(S(=O)(=O)c2ccc(CNC(=O)c3cc4ccncc4o3)cc2)s1 [N-[(4-{2-[ethyl(methyl)amino]-1,3-thiazole-5-sulfonyl}phenyl)methyl]furo[2,3-c]pyridine-2-carboxamide]
A2780 cells; SRB
  IC50: 0.9 nM
NAMPT; NAMPT enzymatic assay
  IC50: 4.8 nM

## CCN(C)c1ncc(S(=O)(=O)c2ccc(CNC(=O)c3ccc4nccn4c3)cc2)s1 [N-[(4-{2-[ethyl(methyl)amino]-1,3-thiazole-5-sulfonyl}phenyl)methyl]imidazo[1,2-a]pyridine-6-carboxamide]
A2780 cells; SRB
  IC50: 0.4 nM
NAMPT; NAMPT enzymatic assay
  IC50: 3.3 nM

## CCN(C)c1ncc(S(=O)(=O)c2ccc(CNC(=O)c3cnc4nccn4c3)cc2)s1 [N-[(4-{2-[ethyl(methyl)amino]-1,3-thiazole-5-sulfonyl}phenyl)methyl]imidazo[1,2-a]pyrimidine-6-carboxamide]
A2780 cells; SRB
  IC50: 0.9 nM
NAMPT; NAMPT enzymatic assay
  IC50: 1.8 nM

## CCN(C)c1ncc(S(=O)(=O)c2ccc(CNC(=O)c3cc4ccncc4s3)cc2)s1 [N-[(4-{2-[ethyl(methyl)amino]-1,3-thiazole-5-sulfonyl}phenyl)methyl]thieno[2,3-c]pyridine-2-carboxamide]
A2780 cells; SRB
  IC50: 1.2 nM
NAMPT; NAMPT enzymatic assay
  IC50: 2.9 nM

## O=C(NCc1ccc(S(=O)(=O)c2cnc3n2CCCCC3)cc1)c1cnc2[nH]ncc2c1 [N-[(4-{5H,6H,7H,8H,9H-imidazo[1,2-a]azepine-3-sulfonyl}phenyl)methyl]-1H-pyrazolo[3,4-b]pyridine-5-carboxamide]
A2780 cells; SRB
  IC50: 12.3 nM
NAMPT; NAMPT enzymatic assay
  IC50: 31.6 nM

## O=C(NCc1ccc(S(=O)(=O)c2cnc3n2CCCCC3)cc1)c1cc2ccncc2o1 [N-[(4-{5H,6H,7H,8H,9H-imidazo[1,2-a]azepine-3-sulfonyl}phenyl)methyl]furo[2,3-c]pyridine-2-carboxamide]
A2780 cells; SRB
  IC50: 5.7 nM
NAMPT; NAMPT enzymatic assay
  IC50: 6 nM

## O=C(NCc1ccc(S(=O)(=O)c2cnc3n2CCCCC3)cc1)c1cnc2nccn2c1 [N-[(4-{5H,6H,7H,8H,9H-imidazo[1,2-a]azepine-3-sulfonyl}phenyl)methyl]imidazo[1,2-a]pyrimidine-6-carboxamide]
A2780 cells; SRB
  IC50: 28.7 nM
NAMPT; NAMPT enzymatic assay
  IC50: 1.1 nM
